Experimental findings from PubChem BioAssay AID330 (DTP/NCI, 2004) are described below.

Where “and” joins values, the source holds several entries; their conditions need not be identical. Equal values may be shown once. Toxic doses and inconclusive results are not listed.

The subject of the assay is P388 leukemia ip, CD2F1 mice, survival T/C. As to the kind of experiment: NCI In Vivo Anticancer Drug Screen. Data for tumor model P388 Leukemia (intraperitoneal) in CD2F1 (CDF1) mice. The conditions noted are these: endpoint: median survival time, higher = longer survival. The essentials: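 Mice carrying the transplanted tumor received test compound or vehicle. Survival was recorded in each group, and the value is the treated-group measurement divided by that of the vehicle-treated control group.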

[1] abbreviates: dose: 100.0 mg/kg/injection, schedule: Q01DX009 (ip), vehicle: saline with Tween-80.
Where [2] appears, read: dose: 50.0 mg/kg/injection, schedule: Q01DX009 (ip), vehicle: saline.
Setting [3] is: dose: 100.0 mg/kg/injection, schedule: Q01DX009 (ip), vehicle: saline.

Take `O=C1C=CC(=O)c2c(O)c3c(c(O)c21)C[C@H](O)[C@H](O)[C@@H]3O`: the T/C was 98 % of control (dose: 1.56 mg/kg/injection, schedule: Q04DX003 (ip), vehicle: water); 92 % of control (dose: 3.13 mg/kg/injection, schedule: Q04DX003 (ip), vehicle: water); 102 % of control (dose: 6.25 mg/kg/injection, schedule: Q04DX003 (ip), vehicle: water).

Turning to `COC(=O)c1cc2[n+](cc1C(=O)OC)CCc1cc3c(cc1-2)OCO3`, the T/C runs as follows: (dose: 0.63 mg/kg/injection, schedule: Q01DX009 (ip), vehicle: water) 99 % of control; (dose: 1.25 mg/kg/injection, schedule: Q01DX009 (ip), vehicle: water) 97 % of control; (dose: 2.5 mg/kg/injection, schedule: Q01DX009 (ip), vehicle: water) 97 % of control; (dose: 5.0 mg/kg/injection, schedule: Q01DX009 (ip), vehicle: water) 106 % of control; (dose: 10.0 mg/kg/injection, schedule: Q01DX009 (ip), vehicle: water) 99 % of control; (dose: 20.0 mg/kg/injection, schedule: Q01DX009 (ip), vehicle: water) 92 % of control.

As for `CCN(CC)CCOc1cccc(C)c1C`, the T/C runs as follows: (dose: 25.0 mg/kg/injection, schedule: Q01DX009 (ip), vehicle: saline with Tween-80) 100 % of control; (dose: 50.0 mg/kg/injection, schedule: Q01DX009 (ip), vehicle: saline with Tween-80) 95 % of control; under setting [1], 104 % of control.

Take `COCC(=O)O`: the T/C is 96 % of control under setting [2] and 93 % of control under setting [3].

For the compound `CCOC(=O)C(=Cc1c[nH]c2ccc(Br)cc12)C(=O)OCC`, the T/C is 104 % of control under setting [1]; 109 % of control (dose: 100.0 mg/kg/injection, schedule: Q04DX003 (ip), vehicle: saline with Tween-80); 87 % of control (dose: 200.0 mg/kg/injection, schedule: Q01DX009 (ip), vehicle: saline with Tween-80); 109 % of control (dose: 200.0 mg/kg/injection, schedule: Q04DX003 (ip), vehicle: saline with Tween-80); 100 % of control (dose: 400.0 mg/kg/injection, schedule: Q01DX009 (ip), vehicle: saline with Tween-80); 100 % of control (dose: 400.0 mg/kg/injection, schedule: Q04DX003 (ip), vehicle: saline with Tween-80).

For `COC(=O)Nc1cccc(-c2nc3ccc(NC(=O)OC)cc3c(=O)n2-c2ccccc2)c1`, the T/C is 111 % of control (dose: 6.25 mg/kg/injection, schedule: Q01DX009 (ip), vehicle: Klucel (hydroxypropylcellulose) (HPC)); 109 % of control and 92 % of control (dose: 8.0 mg/kg/injection, schedule: Q01DX005 (oral), vehicle: Klucel (hydroxypropylcellulose) (HPC)); 112 % of control (dose: 12.5 mg/kg/injection, schedule: Q01DX009 (ip), vehicle: Klucel (hydroxypropylcellulose) (HPC)); 110 % of control and 111 % of control (dose: 16.0 mg/kg/injection, schedule: Q01DX005 (oral), vehicle: Klucel (hydroxypropylcellulose) (HPC)); 108 % of control (dose: 16.0 mg/kg/injection, schedule: Q01DX005 (oral), vehicle: saline); 153 % of control (dose: 25.0 mg/kg/injection, schedule: Q01DX009 (ip), vehicle: Klucel (hydroxypropylcellulose) (HPC)). For the same compound, the T/C reads like this: (dose: 25.0 mg/kg/injection, schedule: Q01DX009 (ip), vehicle: saline) 110 % of control; (dose: 25.0 mg/kg/injection, schedule: Q01DX009 (oral), vehicle: Klucel (hydroxypropylcellulose) (HPC)) 114 % of control; (dose: 32.0 mg/kg/injection, schedule: Q01DX005 (oral), vehicle: Klucel (hydroxypropylcellulose) (HPC)) 112 % of control; (dose: 32.0 mg/kg/injection, schedule: Q01DX005 (oral), vehicle: saline) 121 % of control; under setting [2], 236 % of control; (dose: 50.0 mg/kg/injection, schedule: Q01DX009 (oral), vehicle: Klucel (hydroxypropylcellulose) (HPC)) 118 % of control. Moreover, the T/C runs as follows: (dose: 64.0 mg/kg/injection, schedule: Q01DX005 (oral), vehicle: Klucel (hydroxypropylcellulose) (HPC)) 102 % of control; under setting [3], 202 % of control and 236 % of control; (dose: 128.0 mg/kg/injection, schedule: Q01DX005 (oral), vehicle: Klucel (hydroxypropylcellulose) (HPC)) 102 % of control; (dose: 128.0 mg/kg/injection, schedule: Q01DX005 (oral), vehicle: saline) 171 % of control; (dose: 150.0 mg/kg/injection, schedule: Q01DX009 (ip), vehicle: saline) 236 % of control; (dose: 200.0 mg/kg/injection, schedule: Q01DX009 (oral), vehicle: Klucel (hydroxypropylcellulose) (HPC)) 181 % of control. Moreover, the T/C is, setting by setting: (dose: 400.0 mg/kg/injection, schedule: Q01DX009 (oral), vehicle: Klucel (hydroxypropylcellulose) (HPC)) 183 % of control; (dose: 800.0 mg/kg/injection, schedule: Q01DX009 (oral), vehicle: Klucel (hydroxypropylcellulose) (HPC)) 205 % of control.
